Entries after “also recorded” stand apart in the source; their conditions may differ.
Columns and labels:
[1] = Toxicokinetics (plasma drug level analysis) in the 28-day i.v. dog study; assay type: in vivo, beagle dogs
Experimental: Male and female beagle dogs were either infused biweekly with iron dextran to a level of approximately 500 mg iron/kg body weight or held without iron loading during the 2-month pretreatment phase. […] During the treatment period, clinical observations on the animals were made daily after dosing. Body weights were measured before the start of dosing with NaHBED, weekly during the 28-day treatment period, and at study termination when recovery animals were sacrificed; food consumption was measured weekly during the treatment period. Hematology and clinical chemistry parameters, including serum iron parameters, were assessed at Weeks-1, 2, 4, and 8. Urinalysis was performed on bladder urine samples at necropsy. Plasma samples were collected for drug level analysis at selected timepoints after dosing on the first day and 28 days later. Routine ophthalmologic examinations and cardiovascular evaluations were conducted during the week prior to dose administration and during the third and fourth (eye exams) or fourth (cardiology exams) weeks of NaHBED administration. Organ weights were measured at necropsy and organ-to-body and -brain ratios determined. […] Specimens from liver, heart, spleen, lung, kidney, and eye were taken from each dog at necropsy for subsequent tissue analyses of iron and zinc content.

[2] = tested on: non-iron-loaded beagle dogs; assay: 28-day intravenous repeat dose toxicity study, non-iron-loaded (normal) dogs; assay type: in vivo
Experimental: (§1) 28-Day Intravenous Repeat Dose Toxicity Study of NaHBED in Male and Female Dogs SRI Study.
(§2) Male and female beagle dogs were either infused biweekly with iron dextran to a level of approximately 500 mg iron/kg body weight or held without iron loading during the 2-month pretreatment phase. All dogs were held an additional 2 ½ months before beginning dose administration with N,N′-di(2-hydroxybenzypethylenediarnine-N,N′-diacetic acid, monosodium salt (NaHBED). Groups of 4 male and 4 female dogs that had been iron-loaded received NaHBED at 21.46, 64.38, or 128.76 mg/kg daily in 15-35 min intravenous (i.v.) infusions for 28 consecutive days; a non-iron-loaded group containing the same number of dogs of each sex received 21.46 mg NaHBED/kg/day i.v. during the same period. Vehicle-only control groups of iron-loaded and non-iron-loaded dogs (3 males and 3 females per group) were subjected to the same regimen concurrently. […] During the treatment period, clinical observations on the animals were made daily after dosing. Body weights were measured before the start of dosing with NaHBED, weekly during the 28-day treatment period, and at study termination when recovery animals were sacrificed; food consumption was measured weekly during the treatment period. Hematology and clinical chemistry parameters, including serum iron parameters, were assessed at Weeks-1, 2, 4, and 8. Urinalysis was performed on bladder urine samples at necropsy. Plasma samples were collected for drug level analysis at selected timepoints after dosing on the first day and 28 days later. Routine ophthalmologic examinations and cardiovascular evaluations were conducted during the week prior to dose administration and during the third and fourth (eye exams) or fourth (cardiology exams) weeks of NaHBED administration. Organ weights were measured at necropsy and organ-to-body and -brain ratios determined. Gross and microscopic examination of a complete set of tissues was performed on iron-loaded high dose (128.76 mg/kg/day) and control groups and on non-iron-loaded low dose (21.46 mg/kg/day) and control groups. Specimens from liver, heart, spleen, lung, kidney, and eye were taken from each dog at necropsy for subsequent tissue analyses of iron and zinc content.

iron-loaded beagle dogs = assay: 28-day intravenous repeat dose toxicity study, iron-loaded dogs; assay type: in vivo
Experimental: as §1, §2

mTBI animals = assay: Lower limb spasticity (velocity dependent ankle torque and triceps EMG) after weight drop closed head injury (mTBI); assay type: in vivo, rats; settings: 50 mg/kg s.c. 2x per day for 2 weeks, PO Wk-1 and PO Wk-3
Experimental: Ankle torque, displacement and EMGs are simultaneously recorded and time-locked to onset of dorsiflexion. Velocity dependent ankle torque was tested between 49 and 612 degrees/sec dorsiflexion in awake rats.
These experiments were performed to assess the influence of treatment using NaHBED following mTBI. Fifteen mTBIs were performed as described above, using 450×1.25m weight drop closed head injury. The animals were randomly divided into two groups, control (n=5) and iron chelator (IC) NaHBED treatment (n=10). Beginning on the first day following injury, NaHBED was delivered by subcutaneous injection of 50 mg/kg, 2× per day, for a total dosage of 100 mg/kg/body weight/day. NaHBED 60 mg/ml, was dissolved in deionized, sterilized, iron-free water. The IC was administered every day for 2 weeks. The control animals received equal volume subcutaneous injections of saline.
Spasticity: The influence of treatment was tested by analysis of lower limb spasticity (velocity dependent ankle torque and triceps EMG), in mTBI treated and non-treated mTBI animals. A normal ICT group (Normal HBED) was also included as a treatment control.

[3] = non-iron-loaded dogs, 21.46 mg/kg/day i.v., at necropsy
[4] = non-iron-loaded dogs, 21.46 mg/kg/day i.v., statistically significant for males on Day 15
[5] = repeated daily i.v. doses, iron-loaded beagle dogs, 28 days

O=C([O-])CN(CCN(CC(=O)O)Cc1ccccc1O)Cc1ccccc1O.[Na+] [NaHBED]
total body clearance, Day 28 relative to Day 1 ([1]; daily i.v., Day 28 vs Day 1): correspondingly elevated
volume of distribution, Day 28 relative to Day 1 ([1]; daily i.v., Day 28 vs Day 1): correspondingly elevated
toxicokinetic parameters, iron-loaded versus non-iron-loaded dogs ([1]; same dose level): similar
mobilization and excretion of iron and zinc ([2]; non-iron-loaded dogs, 21.46 mg/kg/day dose level, monosodium salt, 21.46 mg/kg/day): induced mobilization and enhanced excretion; also recorded: clear indication
other effects ([2]; non-iron-loaded dogs, 21.46 mg/kg/day i.v., 28 days): No other effects
iron content of kidneys [2, 3]: dramatic decrease
zinc content of kidneys [2, 3]: dramatic decrease
urine coloration ([2]; non-iron-loaded dogs, 21.46 mg/kg/day i.v., occasionally): slightly red coloration
iron-to-transferrin ratio [2, 4]: apparent elevation
serum iron [2, 4]: apparent elevation
iron and zinc in kidneys, females ([2]; non-iron-loaded female dogs, 21.46 mg/kg/day i.v., at necropsy): virtual absence of either ion
histopathologic findings clearly associated with administration (iron-loaded beagle dogs; daily i.v. for 28 days): no histopathologic findings
effects on body weight and food consumption; ophthalmologic, cardiovascular, hematology, clinical chemistry and urinalysis parameters; organ weights or weight ratios (iron-loaded beagle dogs; iron-loaded dogs, daily i.v. for 28 days): no distinguishable effects
observable adverse effects (iron-loaded beagle dogs; iron-loaded dogs, high dose level (128.76 mg/kg/day i.v., 28 days)): emesis and/or diarrhea
mean kidney iron content (iron-loaded beagle dogs; iron-loaded male groups, at necropsy): statistically lower
kidney zinc content (iron-loaded beagle dogs; iron-loaded, high dose level group, at necropsy): statistically lower
urine coloration (iron-loaded beagle dogs; majority of dogs at all dose levels, most of the treatment period): Reddish urine
maximum tolerated dose (MTD) level (iron-loaded beagle dogs; [5]): > 128.76 mg/kg/day
no observable adverse effect level (NOAEL) (iron-loaded beagle dogs; [5]): 64.38 mg/kg/day
amplitudes of time locked EMGs (mTBI animals): significantly lower
amplitudes of velocity dependent ankle torques (mTBI animals): significantly lower
